# Columns and labels:
# A2780 cells = experiment: Apoptosis and ROS induction on exposure in A2780 cells; format: cell-based; conditions: data not shown
# [1] = tested on: Hepa1–6-Per2-luc hepatocarcinoma tumours; experiment: Antitumour efficacy in Hepa1–6-bearing C57Bl/6 mice (Experiments 3 and 4); format: in vivo; conditions: for percentage tumour inhibition relative to control: Experiment 4, end
# Protocol: (§1) Male CD1-Foxn1^nu or C57Bl/6 (B6) mice aged 5–10 weeks (Janvier, Le Genest St Isle, France) were housed in groups of three to four mice per cage in temperature-controlled (23 ± 1°C), ventilated (100 ± 10 l/min), and light-tight chronobiological animal facilities (Eurobioconcept, Bonneuil s/Marne, France). They were synchronized with an alternation of 12 h of light (L) and 12 h of darkness (D) (LD12:12), with light starting at 07:00, and had ad libitum access to food and water throughout all the experiments. In line with convention, onset of light and that of darkness are referred to as Zeitgeber time 0 (ZT0) and ZT12, respectively. After one or more weeks on this regimen and on the day prior to tumour inoculation, both flanks of each B6 mouse were shaved using clippers.
# Mouse hepatocarcinoma (Hepa1–6, ATCC® CRL-1830™) was kindly provided by S. Dulong (INSERM U935, Villejuif, France), following their stable transfection with the Per2-luc [pLV7-Bsd-P(Per2)-dLuc] reporter constructs within the C5SYS ERASYSBIO+ project (FP7). Mouse Hepa1–6-Per2-luc cells were cultured in 15-cm Petri dishes until they reached 80% confluency. On the day of tumour inoculation, the cells were trypsinized and resuspended at a concentration of 10^6 cells/100 µl in PBS solution alone (Experiments 1 and 2) or with 1:1 MatriGel™ (Corning, Flintshire, UK) (Experiments 3–5) and kept on ice until injected.
# (§2) The mice, aged 8–10 weeks, were anesthetized under isoflurane and Hepa1–6-Per2-luc cells were injected subcutaneously in both postero-lateral flanks of each mouse. Mice were then inspected and weighed daily until experiment completion. Tumour sites were inspected daily until tumours became palpable and amenable to daily measurements of perpendicular diameters using callipers. Measurements were always taken at the same circadian time.
# (§3) Mean daily tumour weight per mouse was calculated as the average volume of the right and left flank tumours according to (L × W^2)/2, where L is the larger and W the smaller perpendicular diameter, and 1 cm^3 corresponds to 1 g. Mice with an estimated tumour weight exceeding 10% of their body weight or those in poor general condition or loosing >15% of their starting body weight were euthanized, in compliance with our Home Office Project Licence specifications approved by the Animals in Science Committee and Animal Welfare and Ethical Review Body.
# (§4) Experiment 3 aimed at assessing the efficacy and tolerability of the more soluble formulation of FY26⋅Cl in Hepa1–6-bearing C57Bl/6 mice. The mice were randomized to receive vehicle or FY26⋅Cl, at a cumulative dose of 60 mg/kg. Treated mice received ip injections of 20 mg/kg of FY26⋅Cl at ZT6 12, 14, and 17 days after tumour inoculation. Control mice received ip vehicle on the same days.
# (§5) Experiment 4 aimed at confirming efficacy and optimizing timing and scheduling of the same cumulative dose of 60 mg/kg of FY26⋅Cl. Mice were randomized to receive either vehicle or FY26⋅Cl as four injections of 15 mg/kg at ZT6 or ZT18 on days 11, 14, 17, and 21.
# (§6) For Experiments 1 and 2, FY26⋅PF6 was diluted in the vehicle, composed of 1% Tween 80 (Sigma-Aldrich, Gillingham, UK), 5% DMSO (Corning, New York, USA) and 94% of 0.9% saline (Prep room, Life Sciences, University of Warwick) under laminar flow. FY26⋅PF6 concentration was confirmed with ICP-MS. For Experiments 3–5, using FY26⋅Cl, a stock solution of 50 mg/ml FY26⋅Cl was prepared in 0.9% saline on the day of injection and diluted as required; the vehicle consisted of 0.9% saline.
# (§7) Body weight data were expressed as % body weight measured on the first treatment day. Tumour weights for individually treated mice were expressed as % of the median control values, in order to determine % inhibition. Mean and standard error or median and interquartiles were computed for the different treatment groups and experimental conditions, i.e. drug timing and day of assessment. Groups were compared using parametric or non-parametric ANOVAs, respectively.
# [2] = Tolerability (survival, body weight) in Hepa1–6-bearing C57Bl/6 mice (Experiments 3 and 4); format: in vivo
# Protocol: as §1, §2, §3, §4, §5, §6, §7
# [3] = Tumour and liver osmium uptake after a single ip dose (Experiment 5, ICP-MS); format: in vivo, C57Bl/6 mice
# Protocol: Experiment 5 determined FY26⋅Cl uptake in mouse tumour and liver. Hepa1–6-bearing mice were randomly assigned to either treatment or control groups. They received a single ip injection of 5, 10, or 20 mg/kg of FY26⋅Cl or 0.1 M PBS (vehicle) at ZT6 (Table 1). The mice from pre-set subgroups were culled at 6, 24, or 48 h after injection. The subcutaneous tumours in both flanks, as well as liver, spleen, one kidney, an ileum, and a colon segment and brain were sampled and stored at −80°C.
# as §6
# Liver tissue was homogenized by manual mechanical grinding (pestle and mortar) while frozen under liquid N2. Once thawed, ∼90–110 mg of homogenized tissue was pipetted into microwave reaction vessels (10 ml), and tetramethylammonium hydroxide (TMAH, 25% m/v, 2 ml) was added. Tumour tissue was not homogenized and instead digested as whole tissue. It was weighed directly into microwave vials and TMAH was added (100 µl per 5 mg tissue, minimum of 500 µl added). The samples were digested via microwave irradiation (CEM SP-D Discover® microwave reactor, ≥300 W, ≥450 psi) at 200°C for 10 min. Digested samples were diluted in one part DDIW, and then centrifuged at 9000 rpm for 10 min at 20°C. The final analytical samples were prepared by a further 1 in 12.5 dilution in DDIW (total dilution of 1 in 25), ensuring a final TMAH concentration of 1% and total dissolved solids <0.1% […]. TMAH digestion was selected to circumvent the formation of volatile Os species with nitric acid.
# Analyses of digested tissue samples were carried out on an Agilent Technologies ICP-MS 7900 spectrometer in a basic aqueous matrix of TMAH (1%, m/v). The osmium concentrations were determined via isotopic detection of ^189Os in gas (He) and no-gas modes, and samples were referenced internally to ^100Ru (10 ppb). A concentration calibration curve was produced by serial dilutions of an osmium standard (1000 ppm) in 1% TMAH: 0, 0.1, 0.25, 0.5, 1, 2.5, 5, 10, 25, 50, 100, 250, 500, and 1000 ppb.
smiles,measurement,setting,value
CN(C)c1ccc(N=Nc2ccccn2)cc1.Cc1ccc(C(C)C)cc1.[Cl-].[I-].[Os+2] [FY26⋅Cl],ROS induction,A2780 cells,did induce an increase in ROS
same,induction of apoptosis,A2780 cells,did not induce apoptosis
same,median percentage tumour inhibition relative to controls,"[1]; Experiment 3, at completion, 20 mg/kg ip × 3 at ZT6",76.5%
same,"median tumour weight, treatment group","[1]; Experiment 3, day 20, 20 mg/kg ip × 3 at ZT6 (control 128.8 mg)",30.2 mg
same,median percentage tumour inhibition relative to controls,"[1]; Experiment 4, at completion, 15 mg/kg ip × 4, irrespective of dosing time",42.6%
same,"median tumour weight, treatment groups ZT6 and ZT18","[1]; Experiment 4, day 23, 15 mg/kg ip × 4 (control 213.2 mg)",122.3 mg
same,percentage tumour inhibition relative to control,[1]; 15 mg/kg ip × 4 at ZT6,12.5%
same,percentage tumour inhibition relative to control,[1]; 15 mg/kg ip × 4 at ZT18,66%
same,tumour inhibition as compared to controls,"[1]; hepatocarcinoma-bearing mice, overall statement in discussion",~60%
same,treated mice alive at completion,"[2]; Experiment 4, 15 mg/kg ip × 4, ZT6 and ZT18",45%
same,loss of body weight before treatment,[2]; after a cumulative dose of 60 mg/kg,~10% (±3.2%)
same,liver [Os] levels at 6 h relative to 20 or 10 mg/kg,"[3]; 5 mg/kg single ip, 6 h",nearly halved
same,liver [Os] levels over time,[3]; 20 mg/kg single ip,remained almost constant until 48 h
same,tumour [Os] levels over time,"[3]; 20 mg/kg single ip, 6, 24 and 48 h",remained almost constant over time
same,liver [Os] concentrations over time,[3]; 10 and 5 mg/kg single ip,decreased sharply at 24 h and remained stable until 48 h
same,tumour [Os] levels over time,"[3]; 10 and 5 mg/kg single ip, tumours of both flanks",decreased at 24 h and slightly increased at 48 h
same,tumour uptake as compared to liver (less),"[3]; 6 h post-treatment, single ip dose at ZT6, both tumours",~10 fold

# Source: PMC7853623, “Dose- and time-dependent tolerability and efficacy of organo-osmium complex FY26 and its tissue pharmacokinetics in hepatocarcinoma-bearing mice” (Metallomics: Integrated Biometal Science, 2020)
